Patent US20090048340A1, “GROWTH HORMONE SECRETION REGULATOR” (AJINOMOTO CO., INC., priority 2006, published 2009)

How the values were obtained:
growth hormone secretion [1] = experiment: Growth hormone secretion regulating function, intravenous administration of amino acid solutions; assay type: in vivo, shiba-goat (capra hircus); conditions: aspartic acid 0.75 mmol/kg, valine 1.0 mmol/kg, blood 6 h before to 12 h after administration, n=3
Method: The growth hormone secretion regulating function of amino acids to be used in the present invention was evaluated by investigating changes in growth hormone secretion caused by intravenous administration of amino acid solutions. The details are as follows.
Special grade aspartic acid (Ajinomoto Co., Inc.) and valine (Ajinomoto Co., Inc.) were used as L-type amino acid samples. The amino acids were dissolved in purified water or an aqueous solution of 5% carboxymethylcellulose and administered as aqueous solutions (pH 7.0 to 8.0).
Two- to four-year-old mature castrated male and female shiba-goats (25 to 35 kg), purchased from the farm of Tokyo University, were domesticated for about one week. Aspartic acid (0.75 mmol/kg), valine (1.0 mmol/kg), and a mixture thereof, prepared in the same way as above, were administered intravenously via a cannula placed in the jugular vein, and blood was collected continuously during a period between 6 hours before and 12 hours after administration every 15 minutes via the cannula placed in the jugular vein, followed by investigation of changes in growth hormone secretion (n=3). The concentrations of the growth hormone in blood were measured by radioimmunoassay based on a double antibody method.
The growth hormone and antibody used in the radioimmunoassay were purchased from National institute of Diabetes and Digestive and Kidney Diseases. The other procedures were performed based on a reference (Hashizume T et al., Animal Science Technology 62: 343-350). The minimum measured concentration was 1 ng/ml, while the maximum measured concentration was 512 ng/ml. The intra-assay variation and inter-assay variation were 11.6% and 12.3%, respectively.

growth hormone secretion [2] = experiment: Growth hormone secretion regulating function, oral administration of amino acid solutions; assay type: in vivo, shiba-goat (capra hircus); conditions: sodium aspartate monohydrate 5 mmol/kg, valine 5 mmol/kg, blood 6 h before to 12 h after administration, n=3
Method: Two- to four-year-old mature castrated male and female shiba-goats (25 to 35 kg), purchased from the farm of Tokyo University, were domesticated for about one week. Sodium aspartate monohydrate (5 mmol/kg, 861 mg/kg), valine (5 mmol/kg, 586 mg/kg), and a mixture thereof, prepared in the same way as Example 1, were administered orally to the shiba-goats, and blood was collected continuously during a period between 6 hours before and 12 hours after administration every 15 minutes via a cannula placed in the jugular vein, followed by investigation of changes in growth hormone secretion (n=3). The concentrations of the growth hormone in blood were measured by immunoassay in which europium was used.
The growth hormone and antibody used in the immunoassay were purchased from National institute of Diabetes and Digestive and Kidney Diseases. The other procedures were performed based on a reference (Sugino T et al., Biochemical and biophysical research communications 295: 255-60). The minimum measured concentration was 2 ng/ml, while the maximum measured concentration was 126 ng/ml. The intra-assay variation and inter-assay variation were 11.3% and 8.6%, respectively.

CC(C)[C@H](N)C(=O)O [valine]
no changes: amount of the growth hormone secreted in a pulse-like manner (growth hormone secretion [1]) | secretion patterns of the growth hormone secreted in a pulse-like manner at a certain frequency (growth hormone secretion [1]) | amount of the growth hormone secreted in a pulse-like manner (growth hormone secretion [2]) | secretion patterns of the growth hormone secreted in a pulse-like manner at a certain frequency (growth hormone secretion [2])

N[C@@H](CC(=O)O)C(=O)O [aspartic acid]
no changes: amount of the growth hormone secreted in a pulse-like manner (growth hormone secretion [1]) | secretion patterns of the growth hormone secreted in a pulse-like manner at a certain frequency (growth hormone secretion [1]) | amount of the growth hormone secreted in a pulse-like manner (growth hormone secretion [2]) | secretion patterns of the growth hormone secreted in a pulse-like manner at a certain frequency (growth hormone secretion [2])
